Source: patent US4495179A, “A51568 Antibiotic and process for producing thereof” (Eli Lilly and Company, priority 1983, dated 1985)
In brackets after ≈: the same amount, converted by molar mass.

How the values were obtained:
Type in all cases: cell-based
Clostridium difficile = assay: Agar-dilution MIC, Clostridium difficile strains (Table 11)
From the text: Antibiotic A51568 is also active against a number of strains of Clostridium difficile, as determined by the agar-dilution method.

[1] = tested on: Bacteroides thetaiotaomicron; assay: Agar-dilution MIC, anaerobic bacteria (Table 10); conditions: Bacteroides thetaiotaomicron 1438
[2] = tested on: Bacteroides melaninogenicus; assay: Agar-dilution MIC, anaerobic bacteria (Table 10)
Streptococcus pyogenes = assay: Agar-dilution MIC, variety of bacteria (Table 8)
Protocol: (§1) The activity of antibiotic A51568 against a variety of bacteria, as determined by the agar-dilution method, is reported in Table 8, which follows, wherein the minimum inhibitory concentration (MIC) values are recorded.

Streptococcus pneumoniae = assay: Agar-dilution MIC, variety of bacteria (Table 8)
Protocol: as §1

Staphylococcus aureus = assay: Agar-dilution MIC, variety of bacteria (Table 8)
Protocol: as §1

Haemophilus influenzae = assay: Agar-dilution MIC, variety of bacteria (Table 8)
Protocol: as §1

[3] = tested on: Staphylococcus epidermidis; assay: Agar-dilution MIC, variety of bacteria (Table 8)
Protocol: as §1

[4] = tested on: Streptococcus sp. Group B; assay: Agar-dilution MIC, variety of bacteria (Table 8)
Protocol: as §1

[5] = tested on: Haemophilus parainfluenzae; assay: Agar-dilution MIC, variety of bacteria (Table 8)
Protocol: as §1

[6] = tested on: Streptococcus sp. Group D; assay: Agar-dilution MIC, variety of bacteria (Table 8)
Protocol: as §1

Eubacterium aerofaciens = assay: Agar-dilution MIC, anaerobic bacteria (Table 10); conditions: Eubacterium aerofaciens 1235
[7] = tested on: Peptostreptococcus intermedius; assay: Agar-dilution MIC, anaerobic bacteria (Table 10); conditions: Peptostreptococcus intermedius 1264

`CC(C)C[C@@H](N)C(=O)N[C@@H]1C(=O)N[C@@H](CC(N)=O)C(=O)N[C@H]2C(=O)N[C@H]3C(=O)N[C@H](C(=O)N[C@H](C(=O)O)c4cc(O)cc(O)c4-c4cc3ccc4O)[C@H](O)c3ccc(c(Cl)c3)Oc3cc2cc(c3O[C@@H]2O[C@H](CO)[C@@H](O)[C@H](O)[C@H]2O[C@H]2C[C@](C)(N)C(O)[C@H](C)O2)Oc2ccc(cc2Cl)[C@H]1O` (stereo partly shown) [A51568, demethylvancomycin] showed an MIC (Clostridium difficile; Clostridium difficile A-196) of 2 µg/mL (≈ 1.39 µM), an MIC (Clostridium difficile; Clostridium difficile A-279) of 2 µg/mL (≈ 1.39 µM) and an MIC (Clostridium difficile; Clostridium difficile A-280) of 2 µg/mL (≈ 1.39 µM). For the same molecule, the MIC (Clostridium difficile; Clostridium difficile A-281) was 2 µg/mL (≈ 1.39 µM), the MIC (Clostridium difficile; Clostridium difficile WAL-2112) was 2 µg/mL (≈ 1.39 µM) and the MIC (Clostridium difficile; Clostridium difficile WAL-3657) was 2 µg/mL (≈ 1.39 µM). It also gave an MIC (Clostridium difficile; Clostridium difficile WAL-4268) of 2 µg/mL (≈ 1.39 µM), an MIC [1] of 32 µg/mL (≈ 22.3 µM) and an MIC ([2]; Bacteroides melaninogenicus 1856/28) greater than 128 µg/mL. For the same molecule, the MIC ([2]; Bacteroides melaninogenicus 2736) was 16 µg/mL (≈ 11.1 µM), the MIC (Streptococcus pyogenes; Streptococcus pyogenes ATCC 10389) was 0.5 µg/mL (≈ 0.348 µM) and the MIC (Streptococcus pyogenes; Streptococcus pyogenes C203) was 0.5 µg/mL (≈ 0.348 µM). It also gave an MIC (Streptococcus pneumoniae; Streptococcus pneumoniae Bl-438) of 0.5 µg/mL (≈ 0.348 µM), an MIC (Streptococcus pneumoniae; Streptococcus pneumoniae Park I) of 0.125 µg/mL (≈ 0.0871 µM) and an MIC (Staphylococcus aureus; Staphylococcus aureus 3055) of 0.5 µg/mL (≈ 0.348 µM). It also gave an MIC (Staphylococcus aureus; Staphylococcus aureus V102) of 1 µg/mL (≈ 0.697 µM), an MIC (Staphylococcus aureus; Staphylococcus aureus V138) of 1 µg/mL (≈ 0.697 µM) and an MIC (Staphylococcus aureus; Staphylococcus aureus V140) of 1 µg/mL (≈ 0.697 µM). For the same molecule, the MIC (Staphylococcus aureus; Staphylococcus aureus X400) was 1 µg/mL (≈ 0.697 µM), the MIC (Haemophilus influenzae; Haemophilus influenzae 76) was 64 µg/mL (≈ 44.6 µM) and the MIC (Haemophilus influenzae; Haemophilus influenzae 312) was 128 µg/mL (≈ 89.2 µM). It also gave an MIC (Haemophilus influenzae; Haemophilus influenzae 4842) of 32 µg/mL (≈ 22.3 µM), an MIC (Haemophilus influenzae; Haemophilus influenzae 16836) of 128 µg/mL (≈ 89.2 µM) and an MIC (Haemophilus influenzae; Haemophilus influenzae Bond) of 64 µg/mL (≈ 44.6 µM). The MIC (Haemophilus influenzae; Haemophilus influenzae C.L.) was 32 µg/mL (≈ 22.3 µM), the MIC (Haemophilus influenzae; Haemophilus influenzae Mx366) was 32 µg/mL (≈ 22.3 µM) and the MIC (Haemophilus influenzae; Haemophilus influenzae Mx371) was 64 µg/mL (≈ 44.6 µM). For the same molecule, the MIC ([3]; Staphylococcus epidermidis 219) was 1 µg/mL (≈ 0.697 µM), the MIC ([3]; Staphylococcus epidermidis 222) was 1 µg/mL (≈ 0.697 µM) and the MIC ([3]; Staphylococcus epidermidis 269) was 2 µg/mL (≈ 1.39 µM). It also gave an MIC ([3]; Staphylococcus epidermidis 270) of 2 µg/mL (≈ 1.39 µM), an MIC ([3]; Staphylococcus epidermidis 285) of 2 µg/mL (≈ 1.39 µM) and an MIC ([4]; Streptococcus sp. Group B 5) of 4 µg/mL (≈ 2.79 µM). For the same molecule, the MIC ([4]; Streptococcus sp. Group B 14) was 0.5 µg/mL (≈ 0.348 µM), the MIC ([5]; Haemophilus parainfluenzae 7901) was 64 µg/mL (≈ 44.6 µM) and the MIC ([5]; Haemophilus parainfluenzae 9796) was 64 µg/mL (≈ 44.6 µM). It also gave an MIC ([6]; Streptococcus sp. Group D 2041) of 2 µg/mL (≈ 1.39 µM), an MIC ([6]; Streptococcus sp. Group D 2058) of 4 µg/mL (≈ 2.79 µM) and an MIC ([6]; Streptococcus sp. Group D 8043) of 1 µg/mL (≈ 0.697 µM). The MIC ([6]; Streptococcus sp. Group D 9901) was 2 µg/mL (≈ 1.39 µM), the MIC ([6]; Streptococcus sp. Group D 9960) was 4 µg/mL (≈ 2.79 µM) and the MIC ([6]; Streptococcus sp. Group D 12253F) was 1 µg/mL (≈ 0.697 µM). The MIC ([6]; Streptococcus sp. Group D Mx161) was 1 µg/mL (≈ 0.697 µM), the MIC ([6]; Streptococcus sp. Group D X66) was 1 µg/mL (≈ 0.697 µM) and the MIC (Eubacterium aerofaciens) was 2 µg/mL (≈ 1.39 µM). For the same molecule, the MIC [7] was 1 µg/mL (≈ 0.697 µM).
